Assay results: US9133186B2, “Hetero ring-fused imidazole derivative having AMPK activating effect” (Shionogi & Co., Ltd., priority 2010, dated 2015)

Molecular target: T1, human AMPK α1β1γ1 enzyme (Homo sapiens, UniProt Q13131+Q9Y478)
T1 construct: purchased Carna Biosciences, Inc
Experiment: AMPK activator evaluation, Test Example 1 (mobility shift, FL-Peptide 7)
Assay type: biochemical
Settings: human AMPK α1β1γ1, control without compound = 100%; for Emax: read-out: Emax (maximum rate of increase in activity within the measurement range)
Protocol: To a buffer solution consisting of a 50 mM HEPES-NaOH buffer solution (pH 7.0), 100 mM NaCl, 10 mM magnesium chloride, 0.1% bovine serum albumin, 0.2 mM sodium orthovanadate(V), 1 mM ethylene glycol-bis(2-aminoethyl ether)-N,N,N′,N′-tetraacetic acid (EGTA), 5 mM disodium (3-glycerophosphate and 2 mM dithiothreitol, a human AMPK α1β1γ1 enzyme (manufactured by Carna Biosciences, Inc.) was added in an amount to give a conversion rate of approximately 10% by reaction for 2 hours, and a compound dissolved in DMSO was added thereto so as to have a 1% DMSO concentration. The obtained liquid was left to stand for 10 minutes.
To the liquid, a substrate solution consisting of a 50 mM HEPES-NaOH buffer solution (pH 7.0), 100 mM NaCl, 10 mM magnesium chloride, 0.1% bovine serum albumin, 0.2 mM sodium orthovanadate(V), 1 mM ethylene glycol-bis(2-aminoethyl ether)-N,N,N′,N′ tetraacetic acid (EGTA), 5 mM disodium β-glycerophosphate, 2 mM dithiothreitol, 0.4 mM ATP and 3 μM FL-Peptide 7 (manufactured by Caliper Life Sciences, Inc.) was added in equal amount (10 μl in total). The obtained liquid was allowed to react at 25° C. for 2 hours, and 10 μl of 20 mM EDTA was then added thereto to stop the reaction.
To detect phosphorylated fluorescent substrates, the reaction liquid was applied to a measuring device, LabChip EZ Reader II manufactured by Caliper Life Science, Inc., for detecting fluorescence by using differences in mobility due to differences in charge. The setting conditions for the device were pressure, −1.5 PSI; upstream voltage, −2250 V; downstream voltage, −400 V; post sample buffer sip time, 40 seconds; final delay, 120 seconds; and peak order, Product First.

T1 sequence (Q13131 10-559 limits assumed): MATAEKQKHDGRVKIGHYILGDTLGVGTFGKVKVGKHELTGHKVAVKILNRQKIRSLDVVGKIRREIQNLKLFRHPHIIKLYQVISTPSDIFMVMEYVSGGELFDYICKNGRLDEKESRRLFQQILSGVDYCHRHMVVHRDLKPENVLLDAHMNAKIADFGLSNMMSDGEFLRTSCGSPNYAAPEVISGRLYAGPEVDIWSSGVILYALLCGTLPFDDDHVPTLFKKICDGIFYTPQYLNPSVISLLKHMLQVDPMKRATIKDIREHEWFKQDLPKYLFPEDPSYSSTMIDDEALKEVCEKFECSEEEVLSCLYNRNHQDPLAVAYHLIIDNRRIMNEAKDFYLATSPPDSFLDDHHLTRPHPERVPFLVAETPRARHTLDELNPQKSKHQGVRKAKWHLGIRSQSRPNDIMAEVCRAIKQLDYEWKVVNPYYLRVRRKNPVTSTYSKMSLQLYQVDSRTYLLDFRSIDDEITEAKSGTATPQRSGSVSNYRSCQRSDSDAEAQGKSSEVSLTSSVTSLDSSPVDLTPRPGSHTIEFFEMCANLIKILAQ
T1 sequence (Q9Y478 whole entry): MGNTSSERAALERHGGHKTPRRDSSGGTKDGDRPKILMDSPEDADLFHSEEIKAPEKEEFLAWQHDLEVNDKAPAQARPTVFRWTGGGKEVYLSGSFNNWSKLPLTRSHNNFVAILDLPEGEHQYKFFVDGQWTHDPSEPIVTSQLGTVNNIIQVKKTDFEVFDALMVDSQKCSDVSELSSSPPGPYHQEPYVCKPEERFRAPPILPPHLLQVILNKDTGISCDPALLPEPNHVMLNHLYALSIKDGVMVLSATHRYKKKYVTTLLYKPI
T1 sequence (P54619 whole entry partner): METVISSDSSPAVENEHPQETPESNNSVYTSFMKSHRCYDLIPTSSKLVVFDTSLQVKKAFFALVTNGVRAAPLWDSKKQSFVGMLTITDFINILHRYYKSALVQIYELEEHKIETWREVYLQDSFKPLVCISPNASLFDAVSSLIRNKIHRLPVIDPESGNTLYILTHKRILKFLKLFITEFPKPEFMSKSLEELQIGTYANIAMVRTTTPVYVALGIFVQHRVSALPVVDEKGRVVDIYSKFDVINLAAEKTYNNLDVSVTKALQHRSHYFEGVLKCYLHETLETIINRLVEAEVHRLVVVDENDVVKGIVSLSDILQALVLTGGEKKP

| SMILES | EC150 (compound concentration showing 150% relative to the control) [nM] | Emax [%] |
| --- | --- | --- |
| Cc1ccc(Oc2nc3nc(-c4ccc(-c5ccccc5)cc4)c(Cl)cc3[nH]2)cc1C(=O)O [Compound B-22] | 13 | 339 |
| CC(C)(C(=O)O)c1ccc(Oc2nc3nc(-c4ccc(N5CCCC5)cc4)c(F)cc3[nH]2)cc1 [Compound C-39] | 35 | 279 |
| CC(C)(C(N)=O)c1ccc(Oc2nc3nc(-c4ccc(N5CCOCC5)cc4)c(Cl)cc3[nH]2)cc1 [Compound C-98] | 1700 | 165 |
| Clc1cc2[nH]c(Oc3cccc(-c4nnn[nH]4)c3)nc2nc1-c1ccc(N2CCOCC2)cc1 [Compound C-1] | 66 | 295 |
| OCCc1ccc(Oc2nc3nc(-c4ccc(N5CCOCC5)cc4)c(Cl)cc3[nH]2)cc1 [Compound B-137] | 25 | 301 |
| Cc1ccc(Oc2nc3nc(-c4ccc(C5(CO)CC5)cc4)c(Cl)cc3[nH]2)cc1C(=O)O [Compound C-37] | 1.3 | 349 |
| O=C(O)COc1ccc(Oc2nc3nc(-c4ccc(N5CCOCC5)cc4)c(Cl)cc3[nH]2)cc1 [Compound B-110] | 160 | 288 |
| NCc1ccc(Oc2nc3nc(-c4ccc(N5CCOCC5)cc4)c(Cl)cc3[nH]2)cc1 [Compound B-117] | 370 | 243 |
| CCc1ccc(Oc2nc3nc(-c4ccc(N5CCOCC5)cc4)c(Cl)cc3[nH]2)cc1C(=O)O [Compound C-70] | 4.2 | 335 |
| Cc1ccc(Oc2nc3cc(-c4ccc(N5CCOCC5)cc4)c(C)nc3[nH]2)cc1C(=O)O [Compound B-81] | 25 | 283 |
| COc1ccc(Oc2nc3nc(-c4ccc(N5CCOCC5)cc4)c(Cl)cc3[nH]2)cn1 [Compound C-100] | 590 | 212 |
| Cc1ccc(Oc2nc3nc(C#Cc4ccccc4)c(Cl)cc3[nH]2)cc1C(=O)O [Compound C-95] | 17 | 309 |
| Cc1ccc(Oc2nc3nc(-c4ccccc4)c(Cl)cc3[nH]2)cc1C(=O)O [Compound B-10] | 280 | 290 |
| O=C(O)/C=C/c1cccc(Oc2nc3nc(-c4ccc(N5CCOCC5)cc4)c(Cl)cc3[nH]2)c1 [Compound B-109] | 140 | 315 |
| CC(C)(C(=O)O)c1ccc(Oc2nc3nc(-c4ccc(N5CCCC5)cc4)c(Cl)cc3[nH]2)cc1 [Compound C-11] | 7.4 | 356 |
| Cc1ccc(Oc2nc3nc(-c4ccc(N5CCCCC5=O)cc4)c(Cl)cc3[nH]2)cc1C(=O)O [Compound C-88] | 120 | 298 |
| COc1ccc(Oc2nc3nc(-c4ccc(N5CCOCC5)cc4)c(Cl)cc3[nH]2)cc1C(=O)O [Compound C-24] | 17 | 237 |
| Cc1ccc(Oc2nc3nc(-c4ccc(N5CCOCC5)cc4)c(C(F)(F)F)cc3[nH]2)cc1C(=O)O [Compound C-96] | 99 | 326 |
| Cc1ccc(Oc2nc3nc(-c4ccc(C(C)(C)O)cc4)c(Cl)cc3[nH]2)cc1C(=O)O [Compound C-63] | 16 | 331 |
| Cc1ccc(Oc2nc3nc(-c4ccc(N5CCOCC5)cc4)c(Cl)cc3[nH]2)cc1C(=O)NC#N [Compound C-9] | 33 | 322 |

Further lines, results first:

| EC150 (compound concentration showing 150% relative to the control) [nM] | Emax [%] | SMILES |
| --- | --- | --- |
| 69 | 226 | CC(C)(C(N)=O)c1ccc(Oc2nc3nc(-c4ccc(N5CCOCC5)cc4)c(Cl)cc3[nH]2)cc1F [Compound D-12] |
| 150 | 238 | CC(=O)NC(C)(C)c1ccc(Oc2nc3nc(-c4ccc(C5COC5)cc4)c(Cl)cc3[nH]2)cc1 [Compound D-111] |
| 260 | 187 | CC(=O)NC(C)(C)c1ccc(Oc2nc3nc(-c4ccc(C5(CO)CC5)cc4)c(Cl)cc3[nH]2)cn1 [Compound D-42] |
| 42 | 252 | CC(C)(C)C(=O)NC(C)(C)c1ccc(Oc2nc3nc(-c4ccc(N5CCOCC5)cc4)c(Cl)cc3[nH]2)cc1 [Compound D-65] |
| 1600 | 285 | CC(C)(C(N)=O)c1ccc(Oc2nc3nc(-c4ccc(N5CCOCC5)cc4)c(Cl)cc3[nH]2)cn1 [Compound D-7] |
| 430 | 182 | CC(=O)NC(C)(C)c1ccc(Oc2nc3nc(-c4ccc(N5CCOCC5)cc4)c(Cl)cc3[nH]2)cn1 [Compound D-1] |
| 860 | 174 | CC(C)(C(N)=O)c1ccc(Oc2nc3nc(-c4ccc(C5(CO)CC5)cc4)c(Cl)cc3[nH]2)cn1 [Compound D-71] |
| 26 | 249 | CC(=O)NC(C)(C)c1ccc(Oc2nc3nc(-c4ccc(C5CCOCC5)cc4)c(Cl)cc3[nH]2)cc1 [Compound D-107] |
| 8300 | 159 | CNCC(C)(C)c1ccc(Oc2nc3nc(-c4ccc(N5CCOCC5)cc4)c(Cl)cc3[nH]2)cc1 [Compound D-41] |
| 70 | 207 | CC(C)(C(N)=O)c1ccc(Oc2nc3nc(-c4ccc(C5(COC(N)=O)CC5)cc4)c(Cl)cc3[nH]2)cc1 [Compound D-4] |
| 11 | 282 | CC(=O)NC(C)(C)c1ccc(Oc2nc3nc(-c4ccc(CCO)cc4)c(Cl)cc3[nH]2)cc1 [Compound D-17] |
| 2700 | 177 | CC(C)(C(=O)NCCO)c1ccc(Oc2nc3nc(-c4ccc(N5CCOCC5)cc4)c(Cl)cc3[nH]2)cn1 [Compound D-55] |
| 18 | 270 | CC(=O)NCCCOc1ccc(-c2nc3nc(Oc4ccc(C(C)(C)NC(C)=O)cc4)[nH]c3cc2Cl)cc1 [Compound D-109] |
| 0.6 | 310 | CC(=O)NC(C)(C)c1ccc(Oc2nc3nc(-c4ccc(-c5ccccc5O)cc4)c(Cl)cc3[nH]2)cc1 [Compound D-39] |
| 110 | 252 | CC(C)(C(N)=O)c1ncc(Oc2nc3nc(-c4ccc(N5CCOCC5)cc4)c(Cl)cc3[nH]2)cn1 [Compound D-54] |
| 17 | 254 | CC(=O)NC(C)(C)c1ccc(Oc2nc3nc(-c4ccc(C5=CCOCC5)cc4)c(Cl)cc3[nH]2)cc1 [Compound D-73] |
| 270 | 220 | CC(=O)NC(C)(C)c1ccc(Oc2nc3nc(-c4ccc(C5(CO)COC5)cc4)c(Cl)cc3[nH]2)cc1 [Compound D-110] |
| 220 | 192 | CC(C)(CO)c1ccc(Oc2nc3nc(-c4ccc(C5(CO)CC5)cc4)c(Cl)cc3[nH]2)cn1 [Compound D-72] |
| 41 | 351 | CC(=O)NC(C)(C)c1ccc(Oc2nc3nc(-c4ccc(N(C)C)cc4)c(Cl)cc3[nH]2)cc1 [Compound D-21] |
| 39 | 244 | CC(=O)NC(C)(C)c1ccc(Oc2nc3nc(-c4ccc(N5CCOCC5)cc4)c(Cl)cc3[nH]2)cc1F [Compound D-8] |
